Data from US6969720B2, “Biaryl substituted purine derivatives as potent antiproliferative agents” (AMR Technology, Inc., priority 1999, dated 2005).
“And” between values parts separate entries of the source, which are not always exact repeats. Equal values may be shown once.

Assays:
[1] = system: HeLa S-3 cells; test: Inhibition of cell growth (SRB), HeLa cells; assay type: cell-based, human; settings: 2 days of treatment, sulforhodamine B, replicate experiments listed singly
Protocol: D. Measuring the Inhibition of Cell Growth
Growth inhibition (GI50) values were measured with HeLa S-3 cells selected for growth on plastic. […] One day later, a control plate was fixed by addition of TCA to 5%. After five rinses with tap water the plate was air dried and stored at 4° C. Test compounds were added to the remaining plates at 10-fold dilutions between 0.01 and 100 μM. Two days later all plates were fixed as described above. Cells were then stained by the addition of 100 μl per well of 0.4% sulforhodamine B (SRB) in 1% acetic acid for 30 min at 4° C. Wells were then quickly rinsed 5× with acetic acid (1%) and allowed to air dry. The SRB was then solubilized by the addition of 100 μl per well of unbuffered 10 mM Tris base. Dye was quantified by measuring absorbance at 490 nm on a Molecular Devices kinetic microplate reader. Growth at each inhibitor concentration relative to the untreated control was calculated according to the following equation: percent growth=100×(T−To)/(C−To), where T was the average optical density (OD) of the test wells after 2 days of treatment, To was the average OD of the wells in the control plate on day 0 and C was the average OD of untreated wells. Plots of percent growth versus inhibitor concentration were used to determine the GI50.

[2] = system: implanted tumors; test: Efficacy study, implanted tumors; assay type: in vivo, athymic mice; settings: IP
Protocol: The efficacy study consists of three compound-treated groups (six mice/group), a positive control-treated group (six mice), and a vehicle-treated control group of 12 mice. Test compounds were administered IP under the treatment schedules listed above (qd×14 or q4d×3), whereas the positive control agent (Taxol) was administered intravenously (IV) at a dosage level of 15 mg/kg/dose for five consecutive days (qd×5). All agents were administered on the basis of individual animal body weight. Treatment began when the implanted tumors were approximately 100 mg in size (range of 65 to 200 mg). The mice were observed daily for survival. Each tumor was measured by caliper in two dimensions and converted to tumor mass using the formula for a prolate ellipsoid (a×b^2/2) and assuming unit density. Tumor measurements and animal body weights were recorded twice weekly. Antitumor activity was assessed by the delay in tumor growth of the treated groups in comparison to the vehicle-treated control group, partial and complete regressions, and tumor-free survivors.

[3] = system: Tumor Cells in Hollow Fibers; test: NCI Hollow Fiber Assay; assay type: in vivo

Row | Structure (SMILES) | GI50 [1] | further results
1 | CC[C@H](CO)Nc1nc(NCc2ccc(-c3cccc(NC(C)=O)c3)cc2)c2ncn(C(C)C)c2n1 [Compound 5] | > 10000 nM | 
2 | CC(C)n1cnc2c(NCc3ccc(-c4ccsc4)cc3)nc(N[C@H]3CC[C@H](N)CC3)nc21 [Compound 12] |  | T-C ([2]; 0.27 mg/kg, q4d × 3): 1.2 days; T-C ([2]; 0.4 mg/kg, q4d × 3): 0.2 days; T-C ([2]; 0.6 mg/kg, q4d × 3): 0.3 days
3 | CC(C)n1cnc2c(NCc3ccc(-c4ccc(F)c(Cl)c4)cc3)nc(N[C@H]3CC[C@H](N)CC3)nc21 [Compound 14] | 400 nM | 
4 | CC[C@H](CO)Nc1nc(NCc2ccc(-c3ccccn3)cc2)c2ncn(C(C)C)c2n1 [Compound 17] | 600 nM and 300 nM | 
5 | CC[C@H](CO)Nc1nc(NCc2ccc(-c3cccnc3)cc2)c2ncn(C(C)C)c2n1 [Compound 25] | 2000 nM and 400 nM and > 1000 nM | 
6 | C=Cc1ccc(-c2ccc(CNc3nc(N[C@H](CC)CO)nc4c3ncn4C(C)C)cc2)cc1 [Compound 33] | 1000 nM and 2000 nM and 900 nM | 
7 | CC[C@H](CO)Nc1nc(NCc2ccc(-c3ccc(C(O)CO)cc3)cc2)c2ncn(C(C)C)c2n1 (some centres unmarked) [Compound 34] | 6000 nM | 
8 | CC[C@H](CO)Nc1nc(NCc2ccc(-c3ccc(OC)cc3)cc2)c2ncn(C(C)C)c2n1 [Compound 43] | 8000 nM | 
9 | CC(=O)N[C@H]1CCCC[C@@H]1Nc1nc(NCc2ccc(-c3ccccc3)cc2)c2ncn(C(C)C)c2n1 [Compound 60] | 6000 nM | 
10 | CC(C)n1cnc2c(NCc3ccc(-c4ccccn4)cc3)nc(N[C@H]3CC[C@H](N)CC3)nc21 [Compound 78] |  | T-C ([2]; 0.33 mg/kg, qd × 14): 1.8 days; Tumor free/total ([2]; 0.33 mg/kg, qd × 14): 0/6; T-C ([2]; 0.5 mg/kg, qd × 14): 0.8 days; Tumor free/total ([2]; 0.5 mg/kg, qd × 14): 0/6; T-C ([2]; 1.0 mg/kg, q4d × 3): 1.1 days; Tumor free/total ([2]; 1.0 mg/kg, q4d × 3): 0/6
11 | CC(C)n1cnc2c(NCc3ccc(-c4ccccc4)cc3)nc(N[C@H]3CCCC[C@H]3NC(=O)Nc3ccccc3)nc21 [Compound 80] | > 100000 nM | 
12 | CC(C)n1cnc2c(NCc3ccc(-c4ccccc4)nc3)nc(N[C@H]3CC[C@H](N)CC3)nc21 [Compound 86] | 30 nM | 
13 | CC(=O)N[C@H]1CC[C@H](Nc2nc(NCc3ccc(-c4ccccc4)nc3)c3ncn(C(C)C)c3n2)CC1 [Compound 87] |  | T-C ([2]; 10 mg/kg, q4d × 3): 2.9 days; Tumor free/total ([2]; 10 mg/kg, q4d × 3): 0/6; T-C ([2]; 15 mg/kg, q4d × 3): 2.5 days; Tumor free/total ([2]; 15 mg/kg, q4d × 3): 0/6
14 | CC(C)n1cnc2c(NCc3ccc(-c4ccccn4)nc3)nc(N[C@H]3CC[C@H](N)CC3)nc21 [Compound 93] | 80 nM | 
15 | CC(=O)N[C@H]1CC[C@H](Nc2nc(NCc3ccc(-c4ccccn4)nc3)c3ncn(C(C)C)c3n2)CC1 [Compound 94] | 70 nM | Cell Types Killed [3]: COLO205, OVCAR-3, H522
16 | CC(=O)N[C@H]1CC[C@H](Nc2nc(NCc3ccc(-c4cccc(F)c4)cc3)c3ncn(C(C)C)c3n2)CC1 [Compound 96] | 40 nM and 10 nM | 
17 | CC(C)n1cnc2c(NCc3ccc(-c4cccnc4)cc3)nc(N[C@H]3CC[C@H](N)CC3)nc21 [Compound 103] | 30 nM and 8 nM and 20 nM and 10 nM | Cell Types Killed [3]: OVCAR 3, OVCAR 5,

Row | Structure (SMILES) | GI50 [1] | further results
18 | CC(=O)N[C@@H](C)CNc1nc(NCc2ccc(-c3ccccc3)cc2)c2ncn(C(C)C)c2n1 [Compound 108] | 5000 nM | 
19 | CC(=O)N[C@H]1CC[C@H](Nc2nc(NCc3ccc(-c4cccc(Cl)c4)cc3)c3ncn(C(C)C)c3n2)CC1 [Compound 110] | 30 nM and 10 nM | 
20 | CC(C)n1cnc2c(NCc3ccc(-c4cccs4)cc3)nc(N[C@H]3CC[C@H](N)CC3)nc21 [Compound 111] |  | melting point: 109 to 110 °C
21 | CC(C)n1cnc2c(NCc3cccnc3)nc(N[C@@H]3CCCC[C@@H]3N)nc21 [Compound 126, reference compound] | 2000 nM and 4000 nM and 6000 nM | 
22 | Cn1cnc2c(NCc3ccc(-c4ccccc4)cc3)nc(N[C@H]3CC[C@H](N)CC3)nc21 [Compound 139] |  | melting point: 182 to 184 °C
23 | CC(=O)N[C@H]1CC[C@H](Nc2nc(NCc3ccc(-c4cc(C)cc(C)c4)cc3)c3ncn(C(C)C)c3n2)CC1 [Compound 150] | 200 nM | 
24 | CC(=O)N[C@H]1CC[C@H](Nc2nc(NCc3ccc(-c4ccc(C)s4)cc3)c3ncn(C(C)C)c3n2)CC1 [Compound 158] | 400 nM | melting point: 225 to 230 °C
25 | Cc1csc(-c2ccc(CNc3nc(N[C@H]4CC[C@H](N)CC4)nc4c3ncn4C(C)C)cc2)c1 [Compound 160] | 300 nM | 
26 | CC(=O)N[C@H]1CC[C@H](Nc2nc(NCc3ccc(-c4cc(C)cs4)cc3)c3ncn(C(C)C)c3n2)CC1 [Compound 161] | 400 nM | melting point: 222 to 223 °C
27 | CCCN[C@H]1CC[C@H](Nc2nc(NCc3ccc(-c4cc(C)cs4)cc3)c3ncn(C(C)C)c3n2)CC1 [Compound 162] | 300 nM | 
28 | CC(C)n1cnc2c(NCc3ccc(-c4ccoc4)cc3)nc(N[C@H]3CC[C@H](N)CC3)nc21 [Compound 164] | 100 nM | 
29 | CC(=O)N[C@H]1CC[C@H](Nc2nc(NCc3ccc(-c4ccoc4)cc3)c3ncn(C(C)C)c3n2)CC1 [Compound 165] |  | melting point: 241 to 243 °C
30 | CCCN(CCC)CCNc1nc(NCc2ccc(-c3ccccc3)cc2)c2ncn(C(C)C)c2n1 [Compound 210] | 4000 nM | 
31 | CC(=O)NCCCNc1nc(NCc2ccc(-c3ccccc3)cc2)c2ncn(C(C)C)c2n1 [Compound 212] | 3000 nM | 
32 | CCCNCCCCNc1nc(NCc2ccc(-c3ccccc3)cc2)c2ncn(C(C)C)c2n1 [Compound 215] | 3000 nM | 
33 | CC(=O)N[C@H]1CC[C@H](Nc2nc(NCc3ccc(-c4cccc(CN)c4)cc3)c3ncn(C(C)C)c3n2)CC1 [Compound 223] | 40 nM and 100 nM | 
